Results from paper PMC7822874, “Chemoprotective antimalarials identified through quantitative high-throughput screening of Plasmodium blood and liver stage parasites” (Scientific Reports, 2021).
Where “and” joins values, the source holds several entries; their conditions need not be identical. Equal entries are not always repeated.

Legend:
in vitro = conditions: human, n = 1
[1] = test system: T1, Plasmodium falciparum Dd2-attB (parental line), asexual blood stages; assay: microbe, parasite or virus in culture; parameters: replicate k of 3 (each line is one of three independent assays; the three lines of one compound and parasite line follow each other); conditions: 72 h; n = 1
T1 construct: Dd2-attB, the isogenic parental line
Outline: (§1)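 Three independent runs, compound subset only; parental vs ScDHODH line compared by two-sided Student's t-test.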

[2] = test system: P. falciparum Dd2 Cytb G131S; assay: SYBR Green ABS proliferation assay, NCGC00374598 selected clone C11; format: cell-based, Plasmodium falciparum; conditions: Plasmodium falciparum, DD2, […]; averaged from three independent replicates; top concentration 29 µM; read-out: Average AC50 (Log[M]), NCGC00374598 clone C11 (Cytb G131S) (converted)
Outline: (§2)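 Drug-selected Dd2 clones bearing the cytochrome b mutation were cultured at 37 °C under 5% CO2, 5% O2, 90% N2. Growth was read at 72 h by SYBR Green-I fluorescence, normalized to controls as percent response.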

[3] = test system: T2, Plasmodium falciparum Dd2-attB-ScDHODH (transgenic line expressing yeast DHODH), asexual blood stages; assay: organism not typed; parameters: replicate k of 3 (each line is one of three independent assays; the three lines of one compound and parasite line follow each other); conditions: 72 h, n = 1
T2 construct: Dd2-attB-ScDHODH, the transgenic line that expresses yeast DHODH
Outline: as §1

[4] = test system: P. falciparum Dd2 Cytb F123L; assay: SYBR Green ABS proliferation assay, NCGC00473217 selected clone G08; format: cell-based, Plasmodium falciparum; conditions: Plasmodium falciparum, DD2, […]; averaged from three independent replicates; top concentration 29 µM; read-out: Average AC50 (Log[M]), NCGC00473217 clone G08 (Cytb F123L) (converted)
Outline: as §2

[5] = test system: P. falciparum Dd2 (clone B2) asexual blood stage parasites; assay: P. falciparum Dd2 asexual blood stage SYBR Green-I 72 h proliferation assay (qHTS); format: cell-based, Plasmodium falciparum; conditions: Plasmodium falciparum, DD2, Dd2 parental; Hill fit, averaged from three independent replicates; top concentration 29 µM; read-out: Average AC50 (Log[M]), Dd2 (converted)
[6] = test system: P. falciparum Dd2 Cytb V259L; assay: SYBR Green ABS proliferation assay, NCGC00473217 selected clone F06; format: cell-based, Plasmodium falciparum; conditions: Plasmodium falciparum, DD2, […]; averaged from three independent replicates; top concentration 29 µM; read-out: Average AC50 (Log[M]), NCGC00473217 clone F06 (Cytb V259L) (converted)
Outline: as §2

[7] = test system: P. falciparum Dd2 Cytb A122D; assay: SYBR Green ABS proliferation assay, NCGC00473217 selected clone F12; format: cell-based, Plasmodium falciparum; conditions: Plasmodium falciparum, DD2, […]; averaged from three independent replicates; top concentration 29 µM; read-out: Average AC50 (Log[M]), NCGC00473217 clone F12 (Cytb A122D) (converted)
Outline: as §2

With COc1cnc(-c2ccccn2)nc1Sc1ccccc1 [MLS000692209-01] the CC50 at 48 h (in vitro; HepG2 cells) was 24.3 µM.
In the case of Cc1cc(NCc2ccccn2)n2nc(C)c(-c3ccc(Cl)cc3)c2n1 [MLS000559839-01], the CC50 at 48 h (in vitro; HepG2 cells) is reported as 9.68 µM.
Molecule COc1cc(OC)cc(C(=O)Oc2c(CN3CCOCC3)cc(Cl)c3cccnc23)c1 [MLS000770997-01] has a CC50 at 48 h (in vitro; HepG2 cells) of 12.2 µM.
In the case of CC(=O)NC(c1ccccc1)c1cc(Cl)c2cccnc2c1O (stereo not shown) [MLS001210949-01], the CC50 at 48 h (in vitro; HepG2 cells) is reported as 12.2 µM.
O=C(Cc1c[nH]c2ccccc12)N1CCc2c([nH]c(-c3ccc(F)cc3)nc2=O)C1 [NCGC00439989-01] showed a CC50 at 48 h (in vitro; HepG2 cells) of 0.00432 µM.
For Cc1cc(C)n(CCC(=O)N2CC(Oc3ccc(-c4nc(-c5ccccc5)no4)cc3)C2)n1 [NCGC00441169-01], the CC50 at 48 h (in vitro; HepG2 cells) was 10.9 µM.
In the case of c1csc(-c2cn3ccc4ccccc4c3n2)c1 [MLS000711806-01], the CC50 at 48 h (in vitro; HepG2 cells) is reported as 15.3 µM.
For CCCN1C(CC(C)C)=N[S+](=O)([O-])c2cc(NC(=O)c3ccco3)ccc21 [NCGC00473219-02], the “Individual replicates / Log AC50 (M)” value [1] was -6.2986 Log AC50 (M) and -5.9986 Log AC50 (M) and -6.0986 Log AC50 (M), the AC50 [2] was 3.17e-06 M and the “Individual replicates / Log AC50 (M)” value [3] was -5.7486 Log AC50 (M) and -5.5986 Log AC50 (M) and -5.8986 Log AC50 (M). For the same molecule, the AC50 [4] was 3.17e-06 M, the AC50 [5] was 3.17e-06 M and the AC50 [6] was 5.22e-06 M. It also gave an AC50 [7] of 3.56e-06 M.
COc1cc(C(=O)N/N=C(/c2ccccc2)c2ccccn2)cc(OC)c1OC [MLS000390992-01] gave a CC50 at 48 h (in vitro; HepG2 cells) of 10.9 µM.
In the case of CCOC(=O)C1=C(c2ccccc2)N=C(N)NC1c1ccc(OCc2ccc(Cl)cc2)c(OC)c1 (stereo not shown) [MLS000771452-01], the CC50 at 48 h (in vitro; HepG2 cells) is reported as 34.3 µM.
With COCCN1Cc2ccc(NCC(C)C)nc2C(C)(C(=O)Nc2cccc(F)c2)C1 (stereo not shown) [NCGC00414615-01] the CC50 at 48 h (in vitro; HepG2 cells) was 35.3 µM.
O=C(CCCCCCC(=O)Nc1ccccc1)NO [NCGC00168085-01] showed a CC50 at 48 h (in vitro; HepG2 cells) of 19.3 µM.
O=C(NCC1CC1)c1nc2c(o1)CCN(Cc1cccc(F)c1)CC2 [NCGC00413365-01] showed a CC50 at 48 h (in vitro; HepG2 cells) of 44.4 µM.
With CC1=CC(=CNNC(=O)c2n[nH]cc2Br)C(=O)C=C1 [MLS000555044-01] the CC50 at 48 h (in vitro; HepG2 cells) was 19.3 µM.
In the case of CCc1ccc(NC(=O)N2CC(C(=O)N(C)C)C3(CCOCC3)C2)cc1 (stereo not shown) [NCGC00471776-01], the CC50 at 48 h (in vitro; HepG2 cells) is reported as 0.00769 µM.
With CC(C)c1cccc(NC(=O)c2ccc(CN3C(=O)NC4(CCOCC4)C3=O)cc2)c1 [NCGC00454607-01] the CC50 at 48 h (in vitro; HepG2 cells) was 24.3 µM.
CCC(C)NC(=O)N1CC(Oc2ccc(-c3noc(C4CCOCC4)n3)cc2)C1 (stereo not shown) [NCGC00458059-01] showed a CC50 at 48 h (in vitro; hepg2) of 12.2 µM.
COc1ccc(CCNc2nc3c(c(=O)n(C)c(=O)n3C)n2Cc2ccc(F)cc2)cc1OC [NCGC00102121-01] showed a CC50 at 48 h (in vitro; HepG2 cells) of 13.7 µM.
For N#Cc1c(Cl)nsc1NC(=O)c1ccccc1 [MLS000696348-01], the CC50 at 48 h (in vitro; HepG2 cells) was 13.7 µM.
Molecule CCCCC(=O)NC(c1cccs1)c1cc(Cl)c2cccnc2c1O (stereo not shown) [MLS000714525-01] has a CC50 at 48 h (in vitro; HepG2 cells) of 13.7 µM.
With Cc1nn2c(NCc3ccccn3)cc(C(C)C)nc2c1-c1ccccc1 [MLS000762881-01] the CC50 at 48 h (in vitro; HepG2 cells) was 12.2 µM.
With CC(=O)c1cccc(N[S+](=O)([O-])c2cc(-c3cnc(C4CC4)o3)ccc2C)c1 [NCGC00131168-01] the CC50 at 48 h (in vitro; HepG2 cells) was 30.6 µM.
For C=C1C(=O)O[C@@H]2C[C@@H](C)[C@@H]3C=CC(=O)[C@@]3(C)[C@@H](OC(=O)CC(=O)O[C@H]3[C@@H]4C(=C)C(=O)O[C@@H]4C[C@@H](C)[C@@H]4C=CC(=O)[C@]43C)[C@H]12 [MLS000728515-01], the CC50 at 48 h (in vitro; hepg2) was 10.9 µM.
In the case of CC1=C[C@@H](CN2CCN(c3ccccn3)CC2)[C@H](C(C)C)C[C@H]1Cc1nnc(C)o1 [NCGC00392770-01], the CC50 at 48 h (in vitro; HepG2 cells) is reported as 35.3 µM.
O=C(Nc1ccc(Cl)cc1)c1nc2c(o1)CCN(Cc1cccc(O)c1)CC2 [NCGC00413336-01] showed a CC50 at 48 h (in vitro; HepG2 cells) of 17.7 µM.
For CCn1c(C)nc2cc(-c3nc4n(n3)Cc3ccccc3-4)ccc21 [MLS000054270-01], the CC50 at 48 h (in vitro; HepG2 cells) was 12.2 µM.
In the case of CCCN1C(CC(C)C)=N[S+](=O)([O-])c2cc(NC(=O)c3ccc(C)o3)ccc21 [NCGC00510048-01], the “Individual replicates / Log AC50 (M)” value [1] is reported as -5.5486 Log AC50 (M) and -5.3486 Log AC50 (M) and -5.1986 Log AC50 (M), the AC50 [2] is reported as 7.38e-06 M and the “Individual replicates / Log AC50 (M)” value [3] is reported as -5.1486 Log AC50 (M). For the same molecule, the AC50 ([3]; read-out: Individual replicates / Log AC50 (converted)) was 7.1 µM, the AC50 [4] was 6.58e-06 M and the AC50 [5] was 9.66e-06 M. The AC50 [6] was 7.38e-06 M and the AC50 [7] was 7.96e-06 M.
